The values that follow come from publication PMC4581254, “Identification of Hydroxyanthraquinones as Novel Inhibitors of Hepatitis C Virus NS3 Helicase” (International Journal of Molecular Sciences, 2015).

For data set [1], the target named is T1, HCV NS3 helicase (Hepatitis C virus genotype 1b, UniProt P26662).
T1 construct: The full-length HCV NS3 protein, with serine protease and NTPase/helicase activities; made in house
Nature of the data set: FRET-based fluorescence helicase assay (dsRNA unwinding). The data set is classed as biochemical. How it is done:
A fluorescence helicase assay based on FRET [26, 27], with modifications in the fluorescent dyes, was used to examine NS3 helicase inhibition by different compounds. […] The concentration of the capture strand was optimized to 400 nM based on the Z′ value; the Z′ value validates assay conditions as having reliability and reproducibility when its value is close to 1.
The FRET-based fluorescence helicase assay was performed as described previously, with modifications in the fluorescent dyes used. The dsRNA substrate was prepared by annealing the 5′ Alexa Fluor 700-labeled fluorescence strand to the 3′ BHQ3-labeled quencher strand in a 1:2 molar ratio. The dsRNA substrate contained the 3′-overhang that is necessary for the NS3 helicase to bind to it prior to duplex unwinding. The capture strand had sequence complementary to the quencher strand and prevented the unwound duplexes from reannealing. All the nucleic acid strands had the same nucleic acid sequences as described previously and were purchased from Japan Bio Services (Saitama, Japan). The reaction mixture contained 25 mM MOPS-NaOH (pH 6.5), 3 mM MgCl2, 2 mM dithiothreitol, 4 U RNasin (Promega, Madison, WI, USA), 50 nM dsRNA substrate, 400 nM capture strand, 5 mM ATP, a serial dilution of test compounds in DMSO vehicle, and 240 nM NS3 helicase in a total reaction volume of 20 µL. The full-length HCV NS3 protein, with serine protease and NTPase/helicase activities, was expressed and purified as described previously.
The reaction was started by the addition of HCV NS3 helicase and was performed at 37 °C for 30 min in a SpectraMax Gemini XS microplate reader (Molecular Devices, Sunnyvale, CA, USA). The fluorescence intensity was recorded every 20 s for 30 min. Helicase activity was calculated as the initial reaction velocity relative to that of the control (in the absence of a test compound but presence of DMSO vehicle). The IC50 was calculated using KaleidaGraph (Synergy Software, Reading, PA, USA) by fitting plots of % activity vs. [I] using Equation (1) unless otherwise stated: (1) % Activity= 100/1+([I]/IC50)^h where h is the Hill coefficient, and [I] is the inhibitor concentration.

For another data set, the target named is NS3 helicase. The settings on record: read-out: IC50 for NS3 helicase inhibition, cited from earlier work.
In data set [2] the test system is Huh-7 cell line harboring the subgenomic replicon RNAs of HCV genotype 1b strain N. Nature of the data set: HCV replicon assay (luciferase). The settings on record: for EC50: Hepatitis C virus, HCV subgenomic replicon, genotype 1b strain N, Huh-7, 72 h, mean ± SD of three replicates, read-out: EC50 (inhibition of HCV replication). The data set is classed as cell-based, Hepatitis C virus. How it is done:
The Huh-7 cell line harboring the subgenomic replicon RNAs of HCV genotype 1b strain N [51] was seeded at 2 × 10^4 cells per well in a 48-well plate and incubated at 37 °C for 24 h. The cells were treated with hypericin or sennidin A at various concentrations at 37 °C for 72 h, and then lysed in cell culture lysis reagent (Promega). A luciferase assay system (Promega) was used to determine the luciferase activity, and the luminescence was measured using a Luminescencer-JNR AB-2100 (ATTO, Tokyo, Japan), corresponding to the expression level of the HCV replicon. The anti-HCV activity of hypericin or sennidin A was calculated as the ratio of the intensity of the luminescence in the sample containing inhibitor to that in the control sample containing DMSO vehicle instead of inhibitor.
In general terms: A replicon is a self-replicating genome or part of one, used to study replication in cells.

Data set [3] addresses T1, HCV NS3 helicase. The experiment in a line: Gel-based helicase assay. It is filed as biochemical. The note with it: compared with the fluorescence helicase assay, Figure S2. How it is done: A gel-based helicase assay was performed as described previously. The dsRNA substrate was prepared by annealing the 5′ Alexa Fluor 488-labeled fluorescence strand to the non-labeled complementary strand in a 1:2 molar ratio. The dsRNA substrate and the capture strand had the same nucleic acid sequences as those used in the FRET-based fluorescence helicase assay, and were purchased from Japan Bio Services. The reaction mixture for HCV NS3 helicase had the same components as those used in the FRET-based fluorescence helicase assay, with increasing concentrations of a test compound in a total reaction volume of 20 µL, except for the fact that the concentration of the capture strand was 100 nM. The reaction was started by the addition of HCV NS3 helicase and performed at 37 °C for 60 min using the GeneAmp PCR System 2700 (Applied Biosystems, Foster City, CA, USA). […] The helicase activity was calculated as the ratio of the signal intensity derived from ssRNA in the sample containing inhibitor to that in the control sample containing DMSO vehicle instead of inhibitor.

The target of another data set is T2, NS3 ATPase activity (Hepatitis C virus genotype 1b, UniProt P26662).
T2 construct: The full-length HCV NS3 protein, with serine protease and NTPase/helicase activities; made in house
T2 sequence (P26662 1027-1657): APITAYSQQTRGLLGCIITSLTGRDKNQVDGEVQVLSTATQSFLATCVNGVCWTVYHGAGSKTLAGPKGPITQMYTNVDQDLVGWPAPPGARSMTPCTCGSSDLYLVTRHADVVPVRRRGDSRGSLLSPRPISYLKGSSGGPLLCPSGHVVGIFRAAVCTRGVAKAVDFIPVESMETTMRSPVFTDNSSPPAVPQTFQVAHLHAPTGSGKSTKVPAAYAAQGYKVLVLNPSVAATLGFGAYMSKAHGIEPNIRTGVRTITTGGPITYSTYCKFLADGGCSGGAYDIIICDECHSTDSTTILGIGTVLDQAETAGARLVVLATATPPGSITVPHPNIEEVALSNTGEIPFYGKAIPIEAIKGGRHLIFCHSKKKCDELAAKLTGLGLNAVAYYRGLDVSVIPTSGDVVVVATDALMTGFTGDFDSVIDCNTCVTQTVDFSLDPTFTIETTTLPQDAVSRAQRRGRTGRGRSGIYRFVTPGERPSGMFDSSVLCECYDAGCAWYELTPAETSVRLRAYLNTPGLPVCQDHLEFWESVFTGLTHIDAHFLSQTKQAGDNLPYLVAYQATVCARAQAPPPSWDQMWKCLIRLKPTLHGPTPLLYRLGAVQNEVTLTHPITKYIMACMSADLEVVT
Nature of the data set: ATPase assay ([γ-32P]ATP hydrolysis, thin-layer chromatography). The data set is classed as biochemical. The settings on record: autoradiography, poly(U) RNA, 300 nM NS3, 0–100 µM tested. On the procedure:
As the unwinding ability of NS3 helicase is dependent on ATP hydrolysis, the amount of inorganic phosphate (Pi) released from radioisotope-labeled ATP ([γ-^32P]ATP) was measured to determine the effects of hypericin on the ATPase activity of NS3 (Figure 3). The released ^32Pi was separated by thin-layer chromatography and visualized using autoradiography. The density of the upper spots corresponding to Pi, which represents ATPase activity, decreased dose-dependently, particularly in the concentration range of 1–5 µM hypericin. […] It is thus likely that hypericin inhibits NS3 helicase via the inhibition of ATPase activity.
NS3 ATPase activity was determined directly by monitoring [γ-^32P]ATP hydrolysis by thin-layer chromatography, as described previously. The reaction mixture contained 25 mM MOPS-NaOH (pH 7.0), 1 mM dithiothreitol, 5 mM MgCl2, 5 mM CaCl2, 1 mM [γ-^32P]ATP (Muromachi Yakuhin, Tokyo, Japan), 300 nM NS3, 0.1 μg/μL poly(U) ssRNA (Sigma-Aldrich), and increasing concentrations of hypericin in a total reaction volume of 10 μL. The reaction was conducted at 37 °C for 10 min, and stopped by the addition of 10 mM EDTA. […] The cellulose sheet was dried, and the released [γ-^32P]phosphoric acid was visualized using an Image Reader FLA-9000 (Fuji film, Tokyo, Japan).

A further data set concerns the target T3, NS3 RNA-binding activity (Hepatitis C virus genotype 1b, UniProt P26662).
T3 construct: The full-length HCV NS3 protein, with serine protease and NTPase/helicase activities; made in house
Nature of the data set: RNA-binding assay (gel mobility-shift). The settings on record: 32P-labeled ssRNA, 300 nM NS3, 0–100 µM tested. On the procedure: As RNA binding is required for NS3 helicase activity, the effect of hypericin on NS3 RNA-binding activity was examined by gel mobility-shift assay (Figure 4). As a control, the non-specific binding of ssRNA to bovine serum albumin (BSA) was assessed (lane 2). The density of the upper bands corresponding to the NS3–ssRNA complex, which represents NS3 RNA-binding activity, decreased dose-dependently in the presence of hypericin, particularly in the concentration range of 3–10 µM.
NS3 RNA-binding activity was determined by gel mobility-shift assay, as described previously. The ssRNA (5′-[…]-3′) synthesized by Gene Design (Osaka, Japan) was labeled at the 5′-end with [γ-^32P]ATP (Muromachi Yakuhin) using T4 polynucleotide kinase (Toyobo, Osaka, Japan) at 37 °C for 60 min, and purified using the phenol-chloroform extraction method. The reaction mixture contained 30 mM Tris-HCl (pH 7.5), 100 mM NaCl, 2 mM MgCl2, 1 mM dithiothreitol, 20 U RNasin Plus (Promega), 300 nM NS3, 0.5 nM ^32P-labeled ssRNA, and increasing concentrations of hypericin in a total reaction volume of 20 μL. The reaction was performed at room temperature for 15 min. […] The labeled RNA bands were visualized using an Image Reader FLA-9000 (Fujifilm, Tokyo, Japan).

Another data set is described as follows: Cytotoxicity assay (MTS). It is filed as cell-based. The note with it: human, Huh-7 replicon cells, mean ± SD of three replicates, read-out: CC50 (reduction in cell viability). On the procedure: The Huh-7 cell line harboring the subgenomic replicon RNAs of HCV genotype 1b strain N [51] was seeded at 2 × 10^4 cells per well in a 48-well plate and incubated at 37 °C for 24 h. The cells were treated with hypericin or sennidin A at various concentrations at 37 °C for 72 h. The MTS assay was carried out to determine cytotoxicity using a CellTiter 96 aqueous one-solution cell proliferation assay kit (Promega) according to the manufacturer’s instructions. The cytotoxicity of hypericin or sennidin A was calculated as the ratio of the […] in the sample containing inhibitor to that in the control sample containing DMSO vehicle instead of inhibitor.

[4] abbreviates: fluorescence helicase assay, dsRNA substrate, 240 nM NS3, 5 mM ATP, 37 °C, read-out: IC50 for NS3 helicase inhibition.

Counter-ions that a name gives are not always drawn. Like-named read-outs stand apart in the source and are kept apart here.

T1 sequence (P26662 1027-1657): as above
T3 sequence (P26662 1027-1657): as above

With `O=C1c2ccccc2C(=O)c2c1cc(O)c(O)c2O` [1,2,3-trihydroxyanthraquinone], the IC50 (commonly the concentration needed to halve the response being measured) on HCV NS3 helicase [1] (setting [4]) is 18 µM. Turning to `O=C1c2c(O)ccc(O)c2C(=O)c2c(NCCNCCO)ccc(NCCNCCO)c21` [mitoxantrone], the IC50 on NS3 helicase is 6.7 µM. Consider `Cc1cc(O)c2c(=O)c3c(O)cc(O)c4c5c(O)cc(O)c6c(=O)c7c(O)cc(C)c8c1c2c(c34)c(c78)c65` [Hypericin, hypericin], for which the “SI, selectivity index (CC50/EC50)” value in data set [2] (CC50/EC50 in Huh-7 replicon cells) was 11.7. Also, the EC50 (commonly the concentration that produces a half-maximal response) in data set [2] came out at 3.5 ± 0.2 µM. For the same compound, on HCV NS3 helicase [3], the “NS3 helicase inhibition in gel-based helicase assay” value is reported as “quite similar to that in the fluorescence helicase assay”. Also, the “Concentration range in which NS3 ATPase activity decreased dose-dependently” value on NS3 ATPase activity fell in the range of 1 to 5 µM. Also, the “Concentration range in which NS3 RNA-binding activity decreased dose-dependently” value on NS3 RNA-binding activity is 3 to 10 µM. Besides, the IC50 at HCV NS3 helicase [1] is 3 µM. Besides, in the data set “Cytotoxicity assay (MTS)”, the CC50 (commonly the concentration at which the toxic effect on the cells reaches its halfway point) at 72 h was determined as 41.1 ± 9.5 µM. As to `O=C(O)c1cc(O)c2c(c1)[C@H]([C@@H]1c3cccc(O)c3C(=O)c3c(O)cc(C(=O)O)cc31)c1cccc(O)c1C2=O` [Sennidin A, sennidin A], in data set [2], the EC50 was more than 80 µM. In addition, the “NS3 helicase inhibition in gel-based helicase assay” value on HCV NS3 helicase [3] is “quite similar to that in the fluorescence helicase assay”. Moreover, the IC50 at HCV NS3 helicase [1] (setting [4]) is 0.8 µM. Besides, in the data set “Cytotoxicity assay (MTS)”, the CC50 at 72 h is more than 80 µM. With `CC(C)CCC[C@@H](C)[C@H]1CC[C@H]2[C@@H]3CC=C4C[C@@H](OS(=O)(=O)O)CC[C@]4(C)[C@H]3CC[C@]12C` [Cholesterol sulfate], the IC50 at NS3 helicase (positive control of the gel-based helicase assay) was 1.7 µM. As for `O=C1c2cccc(O)c2C(=O)c2cccc(O)c21` [1,5-dihydroxyanthraquinone], the IC50 on HCV NS3 helicase [1] (setting [4]) was more than 200 µM. `O=C1c2ccc(O)c(O)c2C(=O)c2c(O)ccc(O)c21` [1,4,5,6-tetrahydroxyanthraquinone]: at HCV NS3 helicase [1] (setting [4]), the IC50 is 98 µM. Regarding `O=C1c2ccccc2C(=O)c2c(O)c(O)cc(O)c21` [1,2,4-trihydroxyanthraquinone], the IC50 at HCV NS3 helicase [1] turned out to be 11 µM. As to `O=C1c2ccccc2C(=O)c2c(O)ccc(O)c21` [1,4-dihydroxyanthraquinone], the IC50 at HCV NS3 helicase [1] (setting [4]) was determined as 54 µM. Same read-out and setting: to `O=C1c2cccc(O)c2C(=O)c2c(O)cccc21` [1,8-dihydroxyanthraquinone] belongs more than 200 µM; to `O=C1c2c(O)ccc(O)c2C(=O)c2c(O)ccc(O)c21` [1,4,5,8-tetrahydroxyanthraquinone], 6 µM. On to `O=C1c2ccccc2C(=O)c2c1ccc(O)c2O` [1,2-dihydroxyanthraquinone], for which, on HCV NS3 helicase [1], the IC50 is more than 200 µM.
